Laboratory results published in patent US20260144769A1, “4-PHENYLBUTYRATE RESTORED GABA UPTAKE AND REDUCED SEIZURES IN SLC6A1 VARIANT-MEDIATED DISORDERS” (Vanderbilt University, priority 2022, published 2026).

Columns and labels:
Test in all cases: 3H GABA uptake, HEK293T, mutant cDNA alone ("homozygous")
Assay type in all cases: cell-based
Conditions in all cases: PBA 2 mM, 24 hrs
GAT-1 A288V = target: T1, GAT-1 A288V (Rattus norvegicus, UniProt P23978, A288V)
T1 construct: The coding region of rGAT-1 was inserted into pEYFP-C1 (Clontech, Palo Alto, CA); expressed in transfected cells; host or cells: HEK293T cells (A4); astrocytes from corrected human iPSCs (A24)
Description: (§1) GABA uptake activity was measured by the high-throughput 3H radio-labeling GABA uptake on a liquid scintillator with QuantaSmart. […] HEK293T cells were transfected with the wildtype or the mutant GAT-1^YFP cDNAs alone for 48 hr. […] HEK293T cells were transfected with the wildtype GAT-1^YFP alone or in mixture of the wildtype or the mutant cDNAs for 48 hr. In the mixed condition, the ratio of the wildtype GAT-1 with pcDNA or the mutant cDNAs are 1:1 with the total cDNA amount of 0.5 μg. […] Both wt and the mutant were normalized to its own DMSO treated conditions. 966 stands for the wildtype treated with CI-966 (50 μM) while 711 stands for NNC-711 (35 μM). (N=4-7 different transfections. In FIG. 4A and FIG. 4B, *P<0.05, **P<0.01, ***p<0.001 vs. wt 0. In FIG. C and FIG. 4D, *P<0.05, **P<0.01, ***p<0.001 vs. its own DMSO treated. In FIG. 4C, ns stands for no significance. One-way analysis of variance (ANOVA) and Newman-Keuls test. Values were expressed as mean±S.E.M.
(§2) The plasmid cDNA encoding enhanced yellow fluorescent protein (EYFP)-tagged rat GAT-1 has been previously described. The coding region of rGAT-1 was inserted into pEYFP-C1 (Clontech, Palo Alto, CA). QuikChange Site-directed Mutagenesis kit was utilized to introduce the GAT-1 variants into a wildtype GAT-1 plasmid. The product was then amplified via polymerase chain reaction, transformed using DH5a competent cells, and plated. A clone was chosen and grown overnight. All the GAT-1 variants were confirmed by DNA sequencing. Both the wildtype and the variant cDNAs were prepared with Qiagen Maxiprep kit.
(§3) Human embryonic kidney cells were cultured as monolayers in 100 mm^2 dishes. Cells were cultured in Dulbecco's Modified Eagle's Medium supplemented with 10% FBS and 1% penicillin/streptomycin in 37° C. in 5% CO2/95% air. Cells were maintained in culture medium until appropriate confluency for experimentation.
(§4) Briefly, cells were cultured in […] dishes for 3 days before the GABA uptake experiment in DMEM with 10% fetal bovine serum and 1% penicillin/streptomycin. The cells were then transfected with equal amounts of the wildtype or the mutant GAT-1 cDNAs (1 μg) for each condition at 24 hrs or 48 hrs after plating. GABA uptake assay was carried out 48 hrs after transfection. The cells were incubated with preincubation solution for 15 min and then incubated with preincubation solution containing 1 μci/mL 3H GABA and 10 μM unlabeled GABA for 30 min at room temperature. After washing, the cells were lysed with 0.25 N NaOH for 1 hr. Glacial acetic acid was added, and lysates were then determined on a liquid scintillator with QuantaSmart. The flux of GABA (pmol/μg/min) was averaged with at least triplets for each condition at each transfection. The average counting was taken as n=1. The untransfected condition was taken as a baseline that was subtracted from both the wildtype and the mutant conditions. The pmol/μg/min in the mutant was then normalized to the wildtype from each experiment, which was arbitrarily taken as 100%. The protocols for GABA reuptake assay in cultured mouse astrocytes, neuron or iPSC derived cells were modified from the GABA uptake protocol on HEK 293T cells. GAT-1 inhibitors CL-966 and NNC-711 were applied each time to make sure the radioactive counts were specific.
(§5) The working solution was stored at 4° C.

GAT-1 D410E = target: T2, GAT-1 D410E (Rattus norvegicus, UniProt P23978, D410E)
T2 construct: The coding region of rGAT-1 was inserted into pEYFP-C1 (Clontech, Palo Alto, CA); expressed in transfected cells; host or cells: HEK293T cells (A7); astrocytes from corrected human iPSCs (A27)
Description: as §1, §2, §3, §4, §5

GAT-1 G326R = target: T3, GAT-1 G326R (Rattus norvegicus, UniProt P23978, G362R)
T3 construct: The coding region of rGAT-1 was inserted into pEYFP-C1 (Clontech, Palo Alto, CA); expressed in transfected cells; host or cells: HEK293T cells
Description: as §1, §2, §3, §4, §5

GAT-1 S295L = target: T4, GAT-1 S295L (Rattus norvegicus, UniProt P23978, S295L)
T4 construct: The coding region of rGAT-1 was inserted into pEYFP-C1 (Clontech, Palo Alto, CA); expressed in transfected cells; host or cells: HEK293T cells (A5); astrocytes from corrected human iPSCs (A25)
Description: as §1, §2, §3, §4, §5

GAT-1 V125M = target: T5, GAT-1 V125M (Rattus norvegicus, UniProt P23978, V125M)
T5 construct: The coding region of rGAT-1 was inserted into pEYFP-C1 (Clontech, Palo Alto, CA); expressed in transfected cells; host or cells: HEK293T cells (A3); astrocytes from corrected human iPSCs (A23)
Description: as §1, §2, §3, §4, §5

GAT-1 W495X = target: T6, GAT-1 W495X (Rattus norvegicus, UniProt P23978)
T6 construct: expressed in transfected cells; host or cells: HEK293T cells
Description: as §1, §2, §3, §4, §5

GABA uptake normalized to its own DMSO treated condition (GAT-1 A288V): 1.22±0.063 | GABA uptake normalized to its own DMSO treated condition (GAT-1 D410E): 1.236±0.074 | GABA uptake normalized to its own DMSO treated condition (GAT-1 G326R): 1.185±0.065 | GABA uptake normalized to its own DMSO treated condition (GAT-1 S295L): 1.386±0.058 | GABA uptake normalized to its own DMSO treated condition (GAT-1 V125M): 1.378±0.056 | GABA uptake normalized to its own DMSO treated condition (GAT-1 W495X): 1.323±0.054
Structure (SMILES): O=C(O)CCCc1ccccc1 [PBA, 4-phenylbutyric acid]
